2 molecules from patent US10072125B2, “Thiourea-containing dendrimer and thiourea-containing hyperbranched polymer as well as preparation methods thereof and applications thereof” (priority 2014, dated 2018) can be followed below.

Usually MIC stands for the smallest concentration in the dilution series that meets the test's criterion for growth inhibition.

Common to all, as to assay: Antibacterial performance test, MIC by broth dilution
Holding throughout (assay type): cell-based
Background: Dilution methods test growth across graded concentrations, often in twofold steps.

The test system of assay [1] is Staphylococcus aureus. The note with it: 24 h at 37° C., 5×10^5 CFU/mL, read-out: MIC S. aureus. How it is done: (§1) To evaluate the antimicrobial activity of each generation of polythiourea dendrimer as described in Example 3, the MICs (minimal inhibitory concentrations) of these dendrimers against different bacteria strains, including Staphylococcus aureus, Enterococcus faecalis, Escherichia coli, Staphylococcus epidermidis, Enterobacter cloacae and Proteus valgaris were determined.
(§2) The strains stored at −20° C. were inoculated on MH agar plates and incubated overnight at 37° C. The monoclonal colonies were cultured in 3 mL nutrient broth at 37° C. to reach the logarithmic growth period. Then the bacteria were diluted with the MH broth to 0.5 millet turbidity standard and further diluted to 1:100 with MH broth as a stock. The diluted bacteria should be inoculated within 15 min. The polythiourea dendrimers were diluted with sterile water into 200 mg/mL, filtered and sterilized. Gentamicin and amikacin were used as positive controls for Gram-negative and Gram-positive bacteria, respectively. Dispense 100 μL of M-H broth into all wells of 96-well plate, and then pipette 100 μL of M-G1-PEG, M-G2-PEG, M-G3-PEG, M-G4-PEG, antibiotics and MH broth in the first column in the order of labeling. After mixing well with the gun, transfer 100 μL from each well in the first column to the corresponding well in the second column. Repeat the procedure to column 10 and discard […], from column 10. Then 100 μL of bacteria was added to each well. The final bacterial solution concentration per well was 5×10^5 CFU/mL. On the outer periphery of the 96-well plate, 200 μL of the drug-free suspension was added as a sterile control. At the same time subculture the suspension in the agar plate, for assessing the purity of bacteria. The inoculated 96-well plates were shaken on a micro-shaker for 1 min, mixed thoroughly and placed in a wet box. After incubated for 24 h at 37° C., the minimum drug concentration of the clear well was observed by the naked eye as the MIC of the drug. At the same time, it was examined whether the growth of the control well was good and the sterile control well was clear. The plate culture of the suspension was examined to determine whether it was contaminated and whether the MIC value of the control strain was in the control range. This assay was repeated three times.

The test system of assay [2] is Enterococcus faecalis. The note with it: 24 h at 37° C., 5×10^5 CFU/mL, read-out: MIC E. faecalis. How it is done:
as §1, §2

Assay [3] has as its system Staphylococcus epidermidis. The note with it: 24 h at 37° C., 5×10^5 CFU/mL, read-out: MIC S. epidermidis. As for the experimental part: as §1, §2
The subject of assay [4] is Escherichia coli. The settings on record: 24 h at 37° C., 5×10^5 CFU/mL. As for the experimental part: as §1, §2
Assay [5] relates to Proteus valgaris. The note with it: 24 h at 37° C., 5×10^5 CFU/mL. As for the experimental part:
as §1, §2

Assay [6] concerns Enterobacter cloacae. The settings on record: 24 h at 37° C., 5×10^5 CFU/mL. How it is done:
as §1, §2

Converted amounts (≈) assume the structure as drawn. Marks after values point to notes of the source that are not given here.

With `NCC[C@H](O)C(=O)N[C@@H]1C[C@H](N)[C@@H](O[C@H]2O[C@H](CN)[C@@H](O)[C@H](O)[C@H]2O)[C@H](O)[C@H]1O[C@H]1O[C@H](CO)[C@@H](O)[C@H](N)[C@H]1O` [Amikacin], the MIC in assay [1] was 2 mg/L (≈ 3.42 µM); in assay [2] it was 4 mg/L (≈ 6.83 µM); in assay [3], 0.5 mg/L (≈ 0.854 µM).

Turning to Gentamicin, the “MIC E. coli” value in assay [4] is recorded as 1** μg/mL. In addition, the “MIC P. valgaris” value in assay [5] is given as 2** μg/mL. For the same molecule, the “MIC E. cloacae” value in assay [6] is given as 2** μg/mL.
